# In patent publication US5491151A, “Antitumor treatment method” (Kabushiki Kaisha Hayashibara Seibutsu Kagaku Kenkyujo, priority 1989, dated 1996):
# Assays:
# Acute toxicity (LD50) = assay type: in vivo; conditions: mouse, in vivo, 7 days
# Experimental: (§1) Either of Compounds No.1-8 in Table I was dissolved or suspended in saline containing 5% gum arabic, and a group of ddy mice, about 10-20 g each, received an intraperitoneal or oral administration of the resultant mixture occasionally through a stomach tube, followed by monitoring and counting dead mice for an additional 7 days to determine respective LD50 value in accordance with the Van der Waerden's method.
# MC-1 cell = test: Antitumor effect by growth inhibition of tumor (MC-1, with or without light-irradiation); assay type: in vivo, C57BL/6 mice; conditions: for Mean wet weight of tumor: 27th day, * significant at 5% or lower; for Rate of survival (%): 35th day
# Experimental: Compounds No.1, 7 and 8 in Table I were evaluated for their antitumor activity using as the criterion the growth inhibitory effect on MC-1 cell, a methylcholanthrene-induced syngenic tumor.
# Eight week-old female C57BL/6 mice were subcutaneously transplanted in their dorsum area with 1×10^5 cells/animal of MC-1 cell. Five days after the transplantation, a group of seven mice with a successful transplantation were subcutaneously administered with either Compound No.1, 7 or 8 in Table I twice a week over a period of 25 days while monitoring the mice.
# One another group of mice were light-irradiated with 100 W medical infrared lamp (100 V) placed about one meter in apart immediately after every administration of either Compound No.1, 7 or 8.
# Control group was subcutaneously administered with 0.2 ml saline in accordance with the same administration schedule.
# On the 27th day after the transplantation, the wet weight of tumor was determined by the method in Y. Shimosato and N. Tamaoki, Human Cancer and Nude mice, pp. 321-323, published by Ishiyaku Publishers Inc., Tokyo, Japan (1982), as well as monitoring the rate (%) of survivals on the 35th day.
# Meth A ascitic tumor = test: Synergistic effect by the combination with hyperthermia (growth inhibition of Meth A tumor); assay type: in vivo, BALB/c mice; conditions: 20 ng/0.1 ml/animal s.c. twice a week; for Mean wet weight of tumor: 40th day; for Growth inhibitory rate for tumor (%): control = 100
# Experimental: More particularly, 6 week-old BALB/c mice were subcutaneously transplanted in their femoral area with 2×10^5 cells/animal of Meth A cell. […] Immediately after every administration, the tumoral sites of the mice were soaked in about 42° C. water bath for about 60 minutes. On the 40th day after the transplantation, the mean wet weight of tumor was determined by the method in Experiment 2-2.
# Separately, one of other groups was administered with either cyanine dye, and determined for its mean wet weight of tumor, while one another group was first administered with saline, then subjected to hyperthermia, followed by determining the mean wet weight of tumor.
# Control group was subcutaneously injected with 0.1 ml saline in the femoral area.
# The mean wet weights of tumor were put into the following equation to calculate the growth inhibitory rate for tumor (%) which was then used to evaluate any synergistic effect by the combination of cyanine dye and hyperthermia. [formula]
# [1] = tested on: Meth A ascitic tumor cell; test: Antitumor effect on tumor-bearing mouse (life-span increasing effect, Meth A ascitic tumor); assay type: in vivo, BALB/c mice; conditions: for Mean survival days: i.p. twice a week over 40 days, * significant to control at 5% or lower; for Increase in life-span (T/C %) / Survivals after 40 days: i.p.; for Increase in life-span (T/C %): control = 100; for Survivals after 40 days: group of seven mice
# Experimental: Compounds No.1, 7 and 8 in Table I were evaluated for their antitumor activity using as the criterion the life-span increasing effect on tumor-bearing mice which had received the transplantation of Meth A ascitic tumor cell.
# More particularly, 8 week-old male BALB/c mice were intraperitoneally transplanted with 1×10^5 cells/mouse of Meth A cell. Ten days after the transplantation, a group of seven mice with a successful transplantation were intraperitoneally administered with either Compound No.1, 7 or 8 in Table I twice a week over a period of 40 days while monitoring the mice.
# Control group was intraperitoneally administered with 0.2 ml saline in accordance with the same administration schedule.
# The rate of increase in life-span (T/C %) under the above conditions was calculated from the mean survival days found for the test group (T) and control group (C). [formula]
# macrophage = test: Activation of macrophage by cyanine dye (adherent ascites cells of treated mice cultured with Meth A ascitic tumor cells, 3H-thymidine incorporation); assay type: cell-based, BALB/c mice; conditions: 50 ng/0.2 ml/animal intraperitoneal to mice, cells collected two days later
# Experimental: Two days after the administration, the ascites of the mice were extracted, and the cells which adhered onto plastic Petri dish were collected.
# Control group was intraperitoneally administered with 0.2 ml saline.
# Thereafter, the incorporation of ^3 H-thymidine in the tumor cell was determined by conventional method, and the growth inhibitory rate for tumor (%) was calculated with the following equation.
# ddy mice = test: Acute toxicity (LD50); assay type: in vivo; conditions: 7 days
# Experimental: as §1
# [2] = ip, intraperitoneal administration
# [3] = 0.5 ng/0.2 ml/animal s.c., combined with light-irradiation
# [4] = 0.5 ng/0.2 ml/animal s.c., no light-irradiation
# [5] = 5 ng/0.2 ml/animal s.c., combined with light-irradiation
# [6] = 5 ng/0.2 ml/animal s.c., no light-irradiation
# [7] = 50 ng/0.2 ml/animal s.c., combined with light-irradiation
# [8] = 50 ng/0.2 ml/animal s.c., no light-irradiation
# [9] = combined with hyperthermia (about 42° C., 60 minutes)
# [10] = intraperitoneal administration, 10080 min
SMILES,LD50 at 168 h (Acute toxicity (LD50); [2]) [mg/kg],"LD50 at 168 h (Acute toxicity (LD50); po, oral administration) [mg/kg]",Mean wet weight of tumor (MC-1 cell; [3]) [g],Rate of survival (%) (MC-1 cell; [3]),Mean wet weight of tumor (MC-1 cell; [4]) [g],Rate of survival (%) (MC-1 cell; [4]),Mean wet weight of tumor (MC-1 cell; [5]) [g],Rate of survival (%) (MC-1 cell; [5]),Mean wet weight of tumor (MC-1 cell; [6]) [g],Rate of survival (%) (MC-1 cell; [6]),Mean wet weight of tumor (MC-1 cell; [7]) [g],Rate of survival (%) (MC-1 cell; [7]),Mean wet weight of tumor (MC-1 cell; [8]) [g],Rate of survival (%) (MC-1 cell; [8]),Mean wet weight of tumor (Meth A ascitic tumor; [9]) [g],Growth inhibitory rate for tumor (%) (Meth A ascitic tumor; combined with hyperthermia),Mean wet weight of tumor (Meth A ascitic tumor; no hyperthermia) [g],Growth inhibitory rate for tumor (%) (Meth A ascitic tumor; no hyperthermia),Mean survival days ([1]; 0.5 ng/0.2 ml/animal) [days],Growth inhibitory rate (%) (macrophage),other results
"CCN1C=CC(=CC=C(C=Cc2cc[n+](CC)c3ccccc23)c2cc[n+](CC)c3ccccc23)c2ccccc21 [Compound No.1, [bis-4-(ethylquinoline)][γ-4'-(1-ethylquinoline)] pentamethine cyanine diiodide]",34,≥ 4000,2.8 ± 0.3,100,4.1 ± 0.5,85.7,0.8 ± 0.1,100,3.1 ± 0.4,100,1.5 ± 0.3,100,3.7 ± 0.2,100,0.12 ± 0.15,2.4,3.24 ± 1.45,65.9,36.1 ± 4.3,25.1,Increase in life-span (T/C %) ([1]; 0.5 ng/0.2 ml/animal): 122%; Survivals after 40 days ([1]; 0.5 ng/0.2 ml/animal): 2; Mean survival days ([1]; 5 ng/0.2 ml/animal): 48.9 ± 4.2 days; Increase in life-span (T/C %) ([1]; 5 ng/0.2 ml/animal): 165%; Survivals after 40 days ([1]; 5 ng/0.2 ml/animal): 7; Mean survival days ([1]; 50 ng/0.2 ml/animal): 45.6 ± 4.2 days; Increase in life-span (T/C %) ([1]; 50 ng/0.2 ml/animal): 154%; Survivals after 40 days ([1]; 50 ng/0.2 ml/animal): 6
CCN1C=CC(=CC=C(C=Cc2cc[n+](CC)c3ccccc23)c2cc[n+](CC)c3ccccc23)c2ccccc21 [compound 4],–,–,–,–,–,–,–,–,–,–,–,–,–,–,–,–,–,–,–,36.2,LD50 (ddy mice; [10]): 37 mg/kg body weight; LD50 (ddy mice; oral administration): ≥ 4.0 g/kg body weight
CCCCN1C=CC(=CC=C(C=Cc2cc[n+](CCCC)c3ccccc23)c2cc[n+](CCCC)c3ccccc23)c2ccccc21,84,≥ 4000,3.3 ± 0.6,85.7,4.7 ± 1.0,71.4,1.9 ± 0.8,100,3.5 ± 0.8,100,2.6 ± 0.5,100,4.0 ± 0.4,85.7,0.62 ± 0.45,12.6,3.35 ± 1.75,68.2,31.1 ± 4.2,37.6,Increase in life-span (T/C %) ([1]; 0.5 ng/0.2 ml/animal): 105%; Survivals after 40 days ([1]; 0.5 ng/0.2 ml/animal): 0; Mean survival days ([1]; 5 ng/0.2 ml/animal): 42.9 ± 6.0 days; Increase in life-span (T/C %) ([1]; 5 ng/0.2 ml/animal): 145%; Survivals after 40 days ([1]; 5 ng/0.2 ml/animal): 5; Mean survival days ([1]; 50 ng/0.2 ml/animal): 39.9 ± 5.4 days; Increase in life-span (T/C %) ([1]; 50 ng/0.2 ml/animal): 135%; Survivals after 40 days ([1]; 50 ng/0.2 ml/animal): 4
CCN1C=CC(=CC=C(C=Cc2cc[n+](CC)c3ccccc23)c2cc[n+](CC)c3ccccc23)c2ccccc21 [compound 3],–,–,–,–,–,–,–,–,–,–,–,–,–,–,–,–,–,–,–,32.3,LD50 (ddy mice; [10]): 31 mg/kg body weight; LD50 (ddy mice; oral administration): ≥ 4.0 g/kg body weight
